# Test results reported in patent publication US11524966B1 (Valo Early Discovery, Inc., priority 2017, dated 2022).
# Biological target: T1, USP25 (USP25-His6, Boston Biochem E-546) (Homo sapiens, UniProt Q9UHP3)
# T1 construct: His6; purchased Boston Biochem E-546
# T1 sequence (Q9UHP3 1-1055): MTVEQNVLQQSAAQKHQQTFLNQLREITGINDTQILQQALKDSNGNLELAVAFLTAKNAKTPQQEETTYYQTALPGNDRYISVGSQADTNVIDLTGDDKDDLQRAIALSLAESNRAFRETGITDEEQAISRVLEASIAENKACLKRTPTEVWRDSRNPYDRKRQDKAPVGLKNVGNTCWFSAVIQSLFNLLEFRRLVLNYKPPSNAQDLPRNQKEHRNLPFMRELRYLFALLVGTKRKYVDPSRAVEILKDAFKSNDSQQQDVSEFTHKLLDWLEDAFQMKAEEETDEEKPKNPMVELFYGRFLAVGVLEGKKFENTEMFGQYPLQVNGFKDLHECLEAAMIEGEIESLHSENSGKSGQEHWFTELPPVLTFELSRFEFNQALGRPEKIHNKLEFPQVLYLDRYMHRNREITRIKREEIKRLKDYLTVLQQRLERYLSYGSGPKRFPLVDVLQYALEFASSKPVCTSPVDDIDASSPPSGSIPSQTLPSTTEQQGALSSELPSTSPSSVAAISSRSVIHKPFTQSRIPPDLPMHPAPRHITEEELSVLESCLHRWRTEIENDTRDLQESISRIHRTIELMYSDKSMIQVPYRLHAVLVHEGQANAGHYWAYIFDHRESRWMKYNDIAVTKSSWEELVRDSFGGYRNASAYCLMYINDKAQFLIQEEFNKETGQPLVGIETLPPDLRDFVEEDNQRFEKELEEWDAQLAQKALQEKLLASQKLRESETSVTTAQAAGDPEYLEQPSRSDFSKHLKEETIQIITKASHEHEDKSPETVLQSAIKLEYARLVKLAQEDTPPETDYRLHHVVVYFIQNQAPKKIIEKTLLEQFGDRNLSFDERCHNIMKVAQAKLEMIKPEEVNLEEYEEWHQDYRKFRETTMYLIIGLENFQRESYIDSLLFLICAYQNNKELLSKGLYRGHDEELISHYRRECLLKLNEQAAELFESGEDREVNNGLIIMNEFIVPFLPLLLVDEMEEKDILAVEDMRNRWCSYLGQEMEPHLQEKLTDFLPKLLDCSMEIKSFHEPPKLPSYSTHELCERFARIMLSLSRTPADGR
# Assay: Ubiquitin-Rhodamine 110 Assay for USP25 Activity, Example A-2
# Assay type: biochemical
# Details: Ubiquitin-Rhodamine 110 assay, Example A-2; read-out: USP25 A-2 IC50 range
# Outline: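 Inhibition is quantified as IC50 by 4-parameter fit of fluorescence (485/535 nm) from Ub-Rh110 hydrolysis. Enzyme USP25-His6 at 75 pM with 30 min compound preincubation, then 25 nM substrate for 45 min at room temperature in pH 8.0 Tris buffer containing BME.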
row,Structure (SMILES),IC50 [µM]
1,"Cc1ccc2c(N)c(C(=O)N[C@@H]3Cc4ccc(N5CCNCC5)nc4[C@@H](C)C3)sc2n1 (single isomer, unassigned) [Example 205]",> 2
2,"Cc1cc(C)c2c(N)c(C(=O)N[C@H]3COc4cc(N5CC[C@H]6CNC[C@H]65)cc(F)c4C3)sc2n1 (single isomer, unassigned) [Example 222]",0.05 to 0.2
3,"Cc1cc(C)c2c(N)c(C(=O)N[C@H]3COc4cc(N5CC[C@@H]6CNC[C@@H]65)cc(F)c4C3)sc2n1 (single isomer, unassigned) [Example 223]",0.05 to 0.2
4,"CO[C@H]1CN(c2cc3c(cc2C#N)C[C@@H](NC(=O)c2sc4nc(C)ccc4c2N)CO3)C[C@@H]1N [Example 177, 3-amino-N-[(3R)-7-[(3S,4S)-3-amino-4-methoxypyrrolidin-1-yl]-6-cyano-3-4-dihydro-2H-1-benzopyran-3-yl]-6-methylthieno[2,3-b]pyridine-2-carboxamide]",0.05 to 0.2
5,"CO[C@H]1CN(c2ccc3c(c2C#N)CC[C@H](NC(=O)c2sc4nc(C)ccc4c2N)C3)C[C@@H]1N [Example 178, 3-amino-N-[(2S)-6-[(3S,4S)-3-amino-4-methoxypyrrolidin-1-yl]-5-cyano-1,2,3,4-tetrahydronaphthalen-2-yl]-6-methylthieno[2,3-b]pyridine-2-carboxamide]",0.2 to 2
6,"CO[C@H]1CN(c2ccc3c(n2)OC[C@H](NC(=O)c2sc4nc(C)cnc4c2N)C3)C[C@@H]1N [Example 181, 7-amino-N-[(3R)-7-[(3S,4S)-3-amino-4-methoxypyrrolidin-1-yl]-2H,3H,4H-pyrano[2,3-b]pyridin-3-yl]-3-methylthieno[2,3-b]pyrazine-6-carboxamide]",> 2
7,"CCO[C@H]1CN(c2ccc3c(n2)OC[C@H](NC(=O)c2sc4nc(C)cnc4c2N)C3)C[C@@H]1N [Example 182, 7-amino-N-[(3R)-7-[(3S,4S)-3-amino-4-ethoxypyrrolidin-1-yl]-2H,3H,4H-pyrano[2,3-b]pyridin-3-yl]-3-methylthieno[2,3-b]pyrazine-6-carboxamide]",> 2
8,"CO[C@H]1CN(c2nc3c(cc2F)C[C@@H](NC(=O)c2sc4nc(C)ccc4c2N)CC3)C[C@@H]1N [Example 183, 3-amino-N-[(6S)-2-[(3S,4S)-3-amino-4-methoxypyrrolidin-1-yl]-3-fluoro-5,6,7,8-tetrahydroquinolin-6-yl]-6-methylthieno[2,3-b]pyridine-2-carboxamide]",> 2
9,"Cc1ccc2c(N)c(C(=O)N[C@H]3COc4cc(N5CCO[C@H]6CNC[C@H]65)ccc4C3)sc2n1 [Example 184, N-[(3R)-7-[(4aR, 7aS)-octahydropyrrolo[3,4-b]morpholin-4-yl]-3,4-dihydro-2H-1-benzopyran-3-yl]-3-amino-6-methylthieno[2,3-b]pyridine-2-carboxamide]",0.05 to 0.2
10,"Cc1ccc2c(N)c(C(=O)N[C@H]3COc4cc(N5CCO[C@@H]6CNC[C@@H]65)ccc4C3)sc2n1 [Example 185, N-[(3R)-7-[(4aS,7aR)-octahydropyrrolo[3,4-b]morpholin-4-yl]-3,4-dihydro-2H-1-benzopyran-3-yl]-3-amino-6-methylthieno[2,3-b]pyridine-2-carboxamide]",0.05 to 0.2
11,"CO[C@H]1CN(c2ccc3c(c2)CC[C@H](NC(=O)c2cnc4c(c2)C2CC2CN4)C3)C[C@@H]1N (stereo partly drawn) [Example 188, N-[(2S)-6-[(3S,4S)-3-amino-4-methoxypyrrolidin-1-yl]-1,2,3,4-tetrahydronaphthalen-2-yl]-5H,6H,6aH,7H,7aH-cyclopropa[c]1,8-naphthyridine-2-carboxamide]",> 2
12,"CO[C@H]1CN(c2ccc3c(c2)CC[C@H](NC(=O)c2cnc4c(c2)[C@@H]2C[C@@H]2CN4)C3)C[C@@H]1N [Example 189, (6aS,7aR)-N-[(2S)-6-[(3S,4S)-3-amino-4-methoxypyrrolidin-1-yl]-1,2,3,4-tetrahydronaphthalen-2-yl]-5H,6H,6aH,7H,7aH-cyclopropa[c]1,8-naphthyridine-2-carboxamide]",> 2
13,"CO[C@H]1CN(c2ccc3c(c2)CC[C@H](NC(=O)c2cnc4c(c2)[C@H]2C[C@H]2CN4)C3)C[C@@H]1N [Example 190, (6aR,7aS)-N-[(2S)-6-[(3S,4S)-3-amino-4-methoxypyrrolidin-1-yl]-1,2,3,4-tetrahydronaphthalen-2-yl]-5H,6H,6aH,7H,7aH-cyclopropa[c]1,8-naphthyridine-2-carboxamide]",> 2
14,"O=C(N[C@H]1CCc2cc(N3CC4CCC(C3)N4)cc(F)c2C1)c1cnc2c(c1)[C@@H]1C[C@@H]1CN2 [Example 191, (6aS,7aR)-N-[(2S)-6-{3,8-diazabicyclo[3.2.1]octan-3-yl}-8-fluoro-1,2,3,4-tetrahydronaphthalen-2-yl]-5H,6H,6aH,7H,7aH-cyclopropa[c]1,8-naphthyridine-2-carboxamide]",> 2
15,"O=C(N[C@H]1CCc2cc(N3CC4CCC(C3)N4)cc(F)c2C1)c1cnc2c(c1)[C@H]1C[C@H]1CN2 [Example 192, (6aR,7aS)-N-[(2S)-6-{3,8-diazabicyclo[3.2.1]octan-3-yl}-8-fluoro-1,2,3,4-tetrahydronaphthalen-2-yl]-5H,6H,6aH,7H,7aH-cyclopropa[c]1,8-naphthyridine-2-carboxamide]",0.05 to 0.2
16,"O=C(N[C@@H]1CCc2cc(N3CC4CCC(C3)N4)cc(F)c2C1)c1cnc2c(c1)[C@@H]1C[C@@H]1CN2 [Example 193, (6aS,7aR)-N-[(2R)-6-{3,8-diazabicyclo[3.2.1]octan-3-yl}-8-fluoro-1,2,3,4-tetrahydronaphthalen-2-yl]-5H,6H,6aH,7H,7aH-cyclopropa[c]1,8-naphthyridine-2-carboxamide]",> 2
17,"O=C(N[C@@H]1CCc2cc(N3CC4CCC(C3)N4)cc(F)c2C1)c1cnc2c(c1)[C@H]1C[C@H]1CN2 [Example 194, (6aR,7aS)-N-[(2R)-6-{3,8-diazabicyclo[3.2.1]octan-3-yl}-8-fluoro-1,2,3,4-tetrahydronaphthalen-2-yl]-5H,6H,6aH,7H,7aH-cyclopropa[c]1,8-naphthyridine-2-carboxamide]",0.2 to 2
18,"N#Cc1c(N2CC3CCC(C2)N3)cc(F)c2c1CC[C@H](NC(=O)c1cnc3c(c1)[C@@H]1C[C@@H]1CN3)C2 [Example 195, (6aS,7aR)-N-[(2S)-5-cyano-6-{3,8-diazabicyclo[3.2.1]octan-3-yl}-8-fluoro-1,2,3,4-tetrahydronaphthalen-2-yl]-5H,6H,6aH,7H,7aH-cyclopropa[c]1,8-naphthyridine-2-carboxamide]",0.05 to 0.2
19,"N#Cc1c(N2CC3CCC(C2)N3)cc(F)c2c1CC[C@H](NC(=O)c1cnc3c(c1)[C@H]1C[C@H]1CN3)C2 [Example 196, (6aR,7aS)-N-[(2S)-5-cyano-6-{3,8-diazabicyclo[3.2.1]octan-3-yl}-8-fluoro-1,2,3,4-tetrahydronaphthalen-2-yl]-5H,6H,6aH,7H,7aH-cyclopropa[c]1,8-naphthyridine-2-carboxamide]",> 2
20,"N#Cc1c(N2CC3CCC(C2)N3)cc(F)c2c1CC[C@@H](NC(=O)c1cnc3c(c1)[C@@H]1C[C@@H]1CN3)C2 [Example 197, (6aS,7aR)-N-[(2R)-5-cyano-6-{3,8-diazabicyclo[3.2.1]octan-3-yl}-8-fluoro-1,2,3,4-tetrahydronaphthalen-2-yl]-5H,6H,6aH,7H,7aH-cyclopropa[c]1,8-naphthyridine-2-carboxamide]",> 2
